What was measured:
[1] = target: Protein kinase C epsilon type (Homo sapiens) (UniProt Q02156); settings: Compound concentration 1000.0 nM
[2] = target: 5-hydroxytryptamine receptor 1E (Homo sapiens) (UniProt P28566); settings: Compound concentration 10.0 uM
[3] = target: Alpha-2B adrenergic receptor (Homo sapiens) (UniProt P18089); settings: Compound concentration 10.0 uM
[4] = target: Sigma non-opioid intracellular receptor 1 (Homo sapiens) (UniProt Q99720); settings: Compound concentration 10.0 uM
[5] = target: 5-hydroxytryptamine receptor 7 (Homo sapiens) (UniProt P34969); experiment: 5HT7/H Cerep selectivity data (BI); settings: Compound concentration 20.0 uM
[6] = target: Voltage-dependent N-type calcium channel subunit alpha-1B (Rattus norvegicus) (UniProt Q02294); experiment: CA+/N/R Cerep selectivity data (BI); settings: Compound concentration 20.0 uM
[7] = target: MAO-A (amine oxidase [flavin-containing] A) (Rattus norvegicus, UniProt P21396); experiment: MAO-A_ANTAG Cerep selectivity data (BI); parameters: mode of action antagonist; scale not given: the % may be the effect or the level left; settings: compound concentration 20 uM, read-out: % Ctrl
[8] = target: Interstitial collagenase (Homo sapiens) (UniProt P03956); experiment: MMP1 (H) Cerep selectivity data (BI); settings: Compound concentration 20.0 uM
[9] = target: T1, 5-hydroxytryptamine receptor 3A (Homo sapiens) (UniProt P46098); experiment: 5HT3/HU Eurofins-Panlabs selectivity data (BI); settings: Compound concentration 10.0 uM
T1 sequence (whole entry): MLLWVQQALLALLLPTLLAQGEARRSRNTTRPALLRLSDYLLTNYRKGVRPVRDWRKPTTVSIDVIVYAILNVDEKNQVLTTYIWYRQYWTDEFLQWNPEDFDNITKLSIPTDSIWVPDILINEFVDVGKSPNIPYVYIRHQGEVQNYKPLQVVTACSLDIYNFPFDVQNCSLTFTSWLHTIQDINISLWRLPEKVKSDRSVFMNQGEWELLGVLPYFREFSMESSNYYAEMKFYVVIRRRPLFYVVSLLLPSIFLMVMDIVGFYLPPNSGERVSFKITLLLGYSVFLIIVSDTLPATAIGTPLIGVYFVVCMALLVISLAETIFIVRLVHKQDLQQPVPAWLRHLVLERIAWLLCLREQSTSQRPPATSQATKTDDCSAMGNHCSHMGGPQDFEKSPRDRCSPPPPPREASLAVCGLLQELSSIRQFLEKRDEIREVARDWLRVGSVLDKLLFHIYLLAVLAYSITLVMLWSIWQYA

[10] = target: Adenosine receptor A3 (Homo sapiens) (UniProt P0DMS8); experiment: A3/H Eurofins-Panlabs selectivity data (BI); settings: Compound concentration 10.0 uM
[11] = target: Histamine H3 receptor (Homo sapiens) (UniProt Q9Y5N1); experiment: H3/H Eurofins-Panlabs selectivity data (BI); settings: Compound concentration 10.0 uM
[12] = target: Glutamate receptor ionotropic, NMDA 1 (Rattus norvegicus) (UniProt P35439); experiment: NMDAGLSI/RA Eurofins-Panlabs selectivity data (BI); settings: Compound concentration 10.0 uM
[13] = system: Tyrosine-protein kinase ABL1 (Homo sapiens), P00519 [T315I]; experiment: ABL1 T315I Invitrogen selectivity data (BI); settings: Compound concentration 3.0 uM
[14] = target: Calcium/calmodulin-dependent protein kinase type II subunit alpha (Homo sapiens) (UniProt Q9UQM7); experiment: CAMK2A Invitrogen selectivity data (BI); settings: Compound concentration 3.0 uM
[15] = target: Calcium/calmodulin-dependent protein kinase kinase 2 (Homo sapiens) (UniProt Q96RR4); experiment: CAMKK2 Invitrogen selectivity data (BI); settings: Compound concentration 3.0 uM
[16] = system: Fibroblast growth factor receptor 3 (Homo sapiens), P22607 [K650E]; experiment: FGFR3 K650E Invitrogen selectivity data (BI); settings: Compound concentration 3.0 uM
[17] = target: Tyrosine-protein kinase JAK2 (Homo sapiens) (UniProt O60674); experiment: JAK2 Invitrogen selectivity data (BI); settings: Compound concentration 3.0 uM
[18] = target: Maternal embryonic leucine zipper kinase (Homo sapiens) (UniProt Q14680); experiment: MELK Invitrogen selectivity data (BI); settings: Compound concentration 3.0 uM
[19] = target: T2, Serine/threonine-protein kinase Sgk2 (Homo sapiens) (UniProt Q9HBY8); experiment: SGK2 Invitrogen selectivity data (BI); settings: Compound concentration 3.0 uM
T2 sequence (whole entry): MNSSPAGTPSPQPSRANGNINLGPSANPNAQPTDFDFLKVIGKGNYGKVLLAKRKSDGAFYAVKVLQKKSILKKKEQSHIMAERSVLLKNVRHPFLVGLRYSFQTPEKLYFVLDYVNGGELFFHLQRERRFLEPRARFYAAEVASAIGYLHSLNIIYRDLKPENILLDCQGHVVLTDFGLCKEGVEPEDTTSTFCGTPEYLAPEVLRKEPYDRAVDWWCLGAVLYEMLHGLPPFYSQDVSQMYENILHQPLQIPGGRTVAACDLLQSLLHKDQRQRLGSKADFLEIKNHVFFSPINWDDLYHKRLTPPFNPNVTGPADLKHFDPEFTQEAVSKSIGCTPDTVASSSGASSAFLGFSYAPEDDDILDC

[20] = target: T3, Serine/threonine-protein kinase TAO3 (Homo sapiens) (UniProt Q9H2K8); experiment: TAOK3 Invitrogen selectivity data (BI); settings: Compound concentration 3.0 uM
T3 sequence (whole entry): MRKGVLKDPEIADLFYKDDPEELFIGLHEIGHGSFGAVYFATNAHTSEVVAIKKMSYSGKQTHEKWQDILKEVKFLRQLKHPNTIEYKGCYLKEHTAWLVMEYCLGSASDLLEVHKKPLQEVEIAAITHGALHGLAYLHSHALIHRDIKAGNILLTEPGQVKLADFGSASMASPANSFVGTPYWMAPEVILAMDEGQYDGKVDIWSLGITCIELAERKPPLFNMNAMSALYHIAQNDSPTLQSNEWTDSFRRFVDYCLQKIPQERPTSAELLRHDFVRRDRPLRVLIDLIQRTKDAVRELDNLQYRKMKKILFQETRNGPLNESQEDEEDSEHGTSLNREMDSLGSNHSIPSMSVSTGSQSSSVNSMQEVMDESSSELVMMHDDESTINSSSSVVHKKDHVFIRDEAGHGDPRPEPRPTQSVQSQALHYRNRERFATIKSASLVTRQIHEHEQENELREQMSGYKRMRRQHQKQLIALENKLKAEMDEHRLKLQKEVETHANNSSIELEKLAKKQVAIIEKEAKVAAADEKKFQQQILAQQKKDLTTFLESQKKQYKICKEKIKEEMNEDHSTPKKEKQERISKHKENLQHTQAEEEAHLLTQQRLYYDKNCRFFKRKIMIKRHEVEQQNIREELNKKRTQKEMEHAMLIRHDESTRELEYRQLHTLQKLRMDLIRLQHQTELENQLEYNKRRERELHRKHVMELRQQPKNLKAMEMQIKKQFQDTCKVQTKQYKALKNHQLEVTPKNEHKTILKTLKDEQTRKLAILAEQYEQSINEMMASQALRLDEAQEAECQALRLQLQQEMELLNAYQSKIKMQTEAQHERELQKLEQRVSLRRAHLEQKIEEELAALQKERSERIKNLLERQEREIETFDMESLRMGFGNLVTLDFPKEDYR

[21] = target: Phosphorylase b kinase gamma catalytic chain, liver/testis isoform (Homo sapiens) (UniProt P15735); experiment: PHKG2 Invitrogen selectivity data (BI); settings: Compound concentration 3.0 uM

Sequence of 5-hydroxytryptamine receptor 7 (Homo sapiens) (P34969 whole entry): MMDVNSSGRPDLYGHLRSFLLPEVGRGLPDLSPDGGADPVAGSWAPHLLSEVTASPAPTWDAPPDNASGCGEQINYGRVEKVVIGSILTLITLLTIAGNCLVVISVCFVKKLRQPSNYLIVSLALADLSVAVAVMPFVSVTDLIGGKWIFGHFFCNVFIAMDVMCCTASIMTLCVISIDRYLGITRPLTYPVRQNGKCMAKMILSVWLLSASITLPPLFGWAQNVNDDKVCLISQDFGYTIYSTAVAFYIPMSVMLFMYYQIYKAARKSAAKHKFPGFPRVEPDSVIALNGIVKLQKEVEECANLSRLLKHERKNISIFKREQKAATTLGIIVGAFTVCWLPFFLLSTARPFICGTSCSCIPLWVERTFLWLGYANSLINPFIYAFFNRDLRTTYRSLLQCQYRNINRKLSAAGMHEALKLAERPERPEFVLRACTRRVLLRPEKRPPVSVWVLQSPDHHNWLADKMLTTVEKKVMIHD
Sequence of Alpha-2B adrenergic receptor (Homo sapiens) (P18089 whole entry): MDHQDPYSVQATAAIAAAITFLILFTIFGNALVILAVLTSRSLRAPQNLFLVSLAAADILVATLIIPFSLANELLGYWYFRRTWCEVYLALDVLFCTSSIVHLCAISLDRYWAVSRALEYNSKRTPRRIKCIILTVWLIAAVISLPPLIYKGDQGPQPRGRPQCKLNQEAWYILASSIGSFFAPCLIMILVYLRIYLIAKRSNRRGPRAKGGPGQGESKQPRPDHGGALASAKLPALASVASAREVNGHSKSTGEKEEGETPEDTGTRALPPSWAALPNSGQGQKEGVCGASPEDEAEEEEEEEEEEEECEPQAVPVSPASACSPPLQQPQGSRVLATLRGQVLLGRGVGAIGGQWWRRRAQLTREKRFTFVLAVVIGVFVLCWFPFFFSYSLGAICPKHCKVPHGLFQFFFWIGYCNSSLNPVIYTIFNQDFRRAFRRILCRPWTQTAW
Sequence of Adenosine receptor A3 (Homo sapiens) (P0DMS8 whole entry): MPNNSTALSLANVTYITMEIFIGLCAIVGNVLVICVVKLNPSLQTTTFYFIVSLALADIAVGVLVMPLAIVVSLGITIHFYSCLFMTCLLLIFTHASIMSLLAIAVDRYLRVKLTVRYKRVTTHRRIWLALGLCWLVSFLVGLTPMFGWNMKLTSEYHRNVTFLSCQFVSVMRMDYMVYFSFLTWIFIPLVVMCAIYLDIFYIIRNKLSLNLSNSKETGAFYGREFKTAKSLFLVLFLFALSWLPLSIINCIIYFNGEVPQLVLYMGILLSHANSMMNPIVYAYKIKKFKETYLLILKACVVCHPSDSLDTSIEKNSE
Sequence of Voltage-dependent N-type calcium channel subunit alpha-1B (Rattus norvegicus) (Q02294 whole entry, looked up): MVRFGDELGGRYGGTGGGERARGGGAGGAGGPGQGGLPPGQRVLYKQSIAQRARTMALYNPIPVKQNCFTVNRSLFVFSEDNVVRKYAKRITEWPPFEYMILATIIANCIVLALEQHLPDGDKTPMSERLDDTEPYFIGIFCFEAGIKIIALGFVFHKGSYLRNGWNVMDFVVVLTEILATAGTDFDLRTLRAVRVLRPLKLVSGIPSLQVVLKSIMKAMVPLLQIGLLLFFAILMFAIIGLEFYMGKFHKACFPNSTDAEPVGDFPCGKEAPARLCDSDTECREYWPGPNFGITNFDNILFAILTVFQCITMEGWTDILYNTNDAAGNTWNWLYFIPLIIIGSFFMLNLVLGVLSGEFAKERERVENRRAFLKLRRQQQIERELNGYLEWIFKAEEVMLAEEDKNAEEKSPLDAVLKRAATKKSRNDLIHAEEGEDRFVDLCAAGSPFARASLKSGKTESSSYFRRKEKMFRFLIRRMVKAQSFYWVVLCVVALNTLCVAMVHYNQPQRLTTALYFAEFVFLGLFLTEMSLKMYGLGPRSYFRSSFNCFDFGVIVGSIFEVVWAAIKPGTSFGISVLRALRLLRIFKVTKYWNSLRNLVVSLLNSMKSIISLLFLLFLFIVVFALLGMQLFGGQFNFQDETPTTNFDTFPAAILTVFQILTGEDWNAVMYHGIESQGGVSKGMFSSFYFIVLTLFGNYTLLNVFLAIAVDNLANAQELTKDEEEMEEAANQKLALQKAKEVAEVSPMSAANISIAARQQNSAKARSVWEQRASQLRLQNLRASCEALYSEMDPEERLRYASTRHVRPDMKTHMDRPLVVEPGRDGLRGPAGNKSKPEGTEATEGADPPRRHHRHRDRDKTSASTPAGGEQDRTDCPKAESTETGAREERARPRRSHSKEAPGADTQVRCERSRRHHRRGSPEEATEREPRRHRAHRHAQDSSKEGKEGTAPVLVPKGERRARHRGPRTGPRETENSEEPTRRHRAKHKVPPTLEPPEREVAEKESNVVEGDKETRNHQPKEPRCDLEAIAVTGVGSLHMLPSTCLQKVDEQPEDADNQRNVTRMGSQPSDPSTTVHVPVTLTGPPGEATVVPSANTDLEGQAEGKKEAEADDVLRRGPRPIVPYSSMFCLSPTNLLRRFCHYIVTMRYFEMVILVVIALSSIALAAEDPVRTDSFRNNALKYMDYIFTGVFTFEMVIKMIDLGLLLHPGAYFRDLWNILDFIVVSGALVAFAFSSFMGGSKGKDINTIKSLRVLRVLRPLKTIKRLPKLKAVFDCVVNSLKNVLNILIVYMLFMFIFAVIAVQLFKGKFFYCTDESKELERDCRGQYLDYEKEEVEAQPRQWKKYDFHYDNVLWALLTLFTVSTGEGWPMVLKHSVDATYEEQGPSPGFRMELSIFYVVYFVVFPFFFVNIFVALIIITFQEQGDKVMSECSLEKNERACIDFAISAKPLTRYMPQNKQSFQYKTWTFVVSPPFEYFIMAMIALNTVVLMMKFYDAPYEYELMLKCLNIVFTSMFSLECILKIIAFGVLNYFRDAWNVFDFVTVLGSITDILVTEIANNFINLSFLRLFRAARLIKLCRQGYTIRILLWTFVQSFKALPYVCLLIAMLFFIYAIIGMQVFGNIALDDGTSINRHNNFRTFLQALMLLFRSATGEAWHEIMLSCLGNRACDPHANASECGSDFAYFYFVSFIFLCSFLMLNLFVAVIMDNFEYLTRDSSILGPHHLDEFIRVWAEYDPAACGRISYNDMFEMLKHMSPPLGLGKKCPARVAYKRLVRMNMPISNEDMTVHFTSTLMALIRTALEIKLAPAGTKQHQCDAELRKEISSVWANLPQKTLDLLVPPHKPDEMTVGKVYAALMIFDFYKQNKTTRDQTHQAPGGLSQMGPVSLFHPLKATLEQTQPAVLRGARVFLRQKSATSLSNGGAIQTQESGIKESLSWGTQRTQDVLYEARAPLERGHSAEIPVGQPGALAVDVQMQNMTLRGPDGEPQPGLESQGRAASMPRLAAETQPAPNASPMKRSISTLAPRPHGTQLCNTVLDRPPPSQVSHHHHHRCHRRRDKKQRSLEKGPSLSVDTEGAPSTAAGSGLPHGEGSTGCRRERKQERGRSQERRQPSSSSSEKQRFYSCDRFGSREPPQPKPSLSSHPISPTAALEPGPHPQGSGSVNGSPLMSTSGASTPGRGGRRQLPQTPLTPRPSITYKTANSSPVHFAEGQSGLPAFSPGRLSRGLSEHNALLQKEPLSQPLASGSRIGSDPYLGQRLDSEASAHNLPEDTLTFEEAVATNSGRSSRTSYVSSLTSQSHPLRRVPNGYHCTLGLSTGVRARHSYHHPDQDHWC
Sequence of MAO-A (amine oxidase [flavin-containing] A) (P21396 whole entry): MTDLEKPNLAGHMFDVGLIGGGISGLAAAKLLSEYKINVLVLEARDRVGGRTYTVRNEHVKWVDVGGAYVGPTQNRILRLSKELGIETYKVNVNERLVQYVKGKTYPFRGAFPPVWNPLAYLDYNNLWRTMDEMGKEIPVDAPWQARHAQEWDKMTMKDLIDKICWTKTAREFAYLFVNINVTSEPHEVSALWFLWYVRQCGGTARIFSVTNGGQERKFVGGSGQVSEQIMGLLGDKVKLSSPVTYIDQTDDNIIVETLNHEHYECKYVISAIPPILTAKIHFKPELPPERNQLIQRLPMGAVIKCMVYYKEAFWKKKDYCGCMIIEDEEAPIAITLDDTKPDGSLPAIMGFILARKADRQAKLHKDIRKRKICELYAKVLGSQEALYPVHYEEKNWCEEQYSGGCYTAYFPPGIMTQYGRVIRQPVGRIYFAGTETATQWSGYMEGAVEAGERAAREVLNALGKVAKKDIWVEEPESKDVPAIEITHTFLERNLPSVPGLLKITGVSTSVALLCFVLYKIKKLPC
Sequence of Interstitial collagenase (Homo sapiens) (P03956 whole entry): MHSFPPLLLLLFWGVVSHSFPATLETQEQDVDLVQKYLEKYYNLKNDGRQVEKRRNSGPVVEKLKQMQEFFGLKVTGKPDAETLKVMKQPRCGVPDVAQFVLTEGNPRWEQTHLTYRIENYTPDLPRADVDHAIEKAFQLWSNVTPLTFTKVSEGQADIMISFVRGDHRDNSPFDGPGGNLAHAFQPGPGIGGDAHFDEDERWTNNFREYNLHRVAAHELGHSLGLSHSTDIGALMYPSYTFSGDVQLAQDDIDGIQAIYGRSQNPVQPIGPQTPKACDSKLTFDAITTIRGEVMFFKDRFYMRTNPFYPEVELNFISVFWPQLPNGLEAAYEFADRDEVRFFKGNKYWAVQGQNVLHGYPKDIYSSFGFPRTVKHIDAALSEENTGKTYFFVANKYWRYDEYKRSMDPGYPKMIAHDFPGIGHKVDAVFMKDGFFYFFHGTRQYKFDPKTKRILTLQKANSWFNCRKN
Sequence of Calcium/calmodulin-dependent protein kinase type II subunit alpha (Homo sapiens) (Q9UQM7 whole entry): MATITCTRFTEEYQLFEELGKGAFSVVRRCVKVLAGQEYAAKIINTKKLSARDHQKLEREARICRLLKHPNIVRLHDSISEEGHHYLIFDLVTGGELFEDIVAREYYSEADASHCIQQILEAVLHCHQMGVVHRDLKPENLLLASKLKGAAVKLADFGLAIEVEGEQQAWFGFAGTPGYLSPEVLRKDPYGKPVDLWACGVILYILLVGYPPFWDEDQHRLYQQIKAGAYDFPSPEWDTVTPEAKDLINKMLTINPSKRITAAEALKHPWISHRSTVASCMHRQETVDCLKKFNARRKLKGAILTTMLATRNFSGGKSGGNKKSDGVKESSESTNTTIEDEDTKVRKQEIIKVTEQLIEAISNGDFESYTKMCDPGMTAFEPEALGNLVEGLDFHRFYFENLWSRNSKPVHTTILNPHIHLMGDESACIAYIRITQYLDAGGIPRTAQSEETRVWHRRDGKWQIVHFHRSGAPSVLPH

Question: Which results are given for CN(C)C(=O)Cn1cc(-c2nc(C3(c4ccc(-c5cnc(N)nc5)cc4)CC3)no2)cn1 [BI 0153]?
Answer: residual activity [1]: 90%; inhibition [2]: -7.33%; inhibition [3]: -3.57%; inhibition [4]: -4.19%

Question: With CN(C)C(=O)Cn1cc(-c2nc([C@@](C)(c3ccc(-c4cnc(N)nc4)cc3)C3CC3)no2)cn1 [BI 665915] as the compound, how does the residual activity [5] read?
Answer: 104%

Question: And the residual activity [6]?
Answer: 96%

Question: And the activity at 20 µM [7]?
Answer: 91% (not active)

Question: What about the residual activity [8] of the same compound?
Answer: 97%

Question: And the residual activity [9]?
Answer: 102%

Question: And the residual activity [10]?
Answer: 88%

Question: What about the residual activity [11] of the same compound?
Answer: 123%

Question: What about the residual activity [12] of the same compound?
Answer: 90%

Question: What about the residual activity [13] of the same compound?
Answer: 83%

Question: What about the residual activity [14] of the same compound?
Answer: 103%

Question: What about the residual activity [15] of the same compound?
Answer: 98%

Question: What about the residual activity [16] of the same compound?
Answer: 91%

Question: What about the residual activity [17] of the same compound?
Answer: 91%

Question: What about the residual activity [18] of the same compound?
Answer: 94%

Question: And the residual activity [19]?
Answer: 97%

Question: What about the residual activity [20] of the same compound?
Answer: 104%

Question: And the residual activity [21]?
Answer: 97.5%
